From patent publication US10662203B2, “Pyrido[2,3-b]indole compounds for the treatment and prophylaxis of bacterial infection” (Hoffmann-La Roche Inc., priority 2017, dated 2020)
≈ marks a conversion by molar mass, not a printed value.

Key:
[1] = Lyophilisation solubility assay (LYSA); type: physicochemical; conditions: phosphate buffer, pH 6.5, aqueous buffer, thermodynamic from solid, 0.05 M phosphate buffer, HPLC-UV
Outline: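 Duplicate samples made from 10 mM DMSO stock. DMSO evaporated and the residue taken up in 0.05 M phosphate buffer, pH 6.5, stirred 1 h and shaken 2 h, then left overnight. Filtrate and its 1/10 dilution quantified by HPLC-UV.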

A. baumannii (ATCC17978) = assay: 50% growth inhibitory concentration (IC50) determination assay; type: cell-based; conditions: Acinetobacter baumannii, ATCC17978, A. baumannii ATCC17978; Iso-Sensitest broth; 0.098 = detection limit
Outline: (§1)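 Compounds were two-fold serially diluted (50 to 0.097 μM final) in Iso-Sensitest broth, with ~5×10^5 CFU/mL bacteria. Plates were incubated at 35±2° C and growth followed by OD600 every 20 min over 16 h to derive IC50.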

S. aureus (ATCC29213) = assay: as above; type: cell-based; conditions: Staphylococcus aureus, Iso-Sensitest broth, 0.098 = detection limit
Outline: as §1

[2] = tested on: K. pneumoniae (ATCC10031); assay: as above; type: cell-based; conditions: Klebsiella pneumoniae, Iso-Sensitest broth, 0.098 = detection limit
Outline: as §1

[3] = Single dose PK study (SDPK) in female CD-1 mouse; type: in vivo; conditions: MOUSE IV, 1.0 mg/kg-Solution; for clearance: female, CD-1, plasma, read-out: CL total
Protocol: Single Dose PK Study (SDPK) in Female CD-1 Mouse: The single dose PK in female CD-1 mouse was performed to assess compound's pharmacokinetic properties. One group of animals were dosed via bolus intravenous (IV) of the respective compound. Blood samples (approximately 30 μL) were collected via saphenous vein at 5 mins, 15 min, 30 min, 1 hr, 2 hr, 4 hr and 7 hr. For last time point (24 hr), samples were collected via cardiac puncture while the mouse was under anesthesia. Blood samples were placed into tubes containing EDTA-K2 anticoagulant (2 μL of 0.5M per tube) and centrifuged at 3000 rpm for 10 minutes at 4° C. within half an hour to separate plasma from the samples. Following centrifugation, plasma samples were stored in polypropylene tubes, quick frozen over dry ice and kept at −70±10° C. until LC/MS/MS analysis. The pharmacokinetic parameters were calculated using non-compartmental module of WinNonlin® Professional 6.4.

[4] = Cytotoxicity assay (HepG2, CellTiter-Blue cell viability); type: cell-based; conditions: human; HepG2 cells, 3 days treatment; "*": the detection limit; read-out: CC50
Protocol: The cytotoxicity of compounds of present invention was assessed by HepG2 assay. HepG2 cells (ATCC HB-8065™) were seeded into 96-well plates (1.2×10^4 cells per well) and treated with compounds for 3 days, cell viability was measured at day 3 post compound treatment using the CellTiter-Blue® Cell Viability Assay (Promega, Cat. No. G8082). 20 μL of Cell titer blue buffer were added to each well of the cells, which were incubated for 3 hours at 37° C., and the fluorescence value was measured by a plate reader (Molecular Device SpectraMax M2). The CC50 value of each compound is plotted with GraphPad Prism using four parameter logistic equation.

For `CNc1cc(F)c(F)c2c1[nH]c1ncc(-c3cnc4c(c3)c(=O)c(C(=O)O)cn4C)c(N3CC4[C@H](CCN4C)C3)c12` (some centres unmarked) [Example 1.192], which solubility thermodynamic [1] is on record?
Its solubility thermodynamic is 58 µg/mL (≈ 104 µM).

And the IC50 (A. baumannii (ATCC17978))?
Its IC50 is 0.105 µM.

What about the IC50 (S. aureus (ATCC29213)) of the same molecule?
The IC50 was less than 0.098 µM.

And the IC50 [2]?
Its IC50 is less than 0.098 µM.

What about the AUC total [3] of the same molecule?
The AUC total was 235.0 ng·h/mL.

And the clearance [3]?
Its clearance is 69.6 mL/min/kg.

With `CNc1cc(F)c(F)c2c1[nH]c1ncc(-c3cnc4c(c3)c(=O)c(C(=O)O)cn4NC)c(N3CC4[C@H](CCN4C)C3)c12` (some centres unmarked) [Example 1.193] as the molecule, how does the solubility thermodynamic [1] read?
Its solubility thermodynamic is 16 µg/mL (≈ 27.8 µM).

What about the IC50 (A. baumannii (ATCC17978)) of the same molecule?
Its IC50 is 0.096 µM.

What about the IC50 (S. aureus (ATCC29213)) of the same molecule?
The IC50 was less than 0.098 µM.

And the IC50 [2]?
Its IC50 is less than 0.098 µM.

What about the CC50 at 3 days [4] of the same molecule?
The CC50 at 3 days was greater than 100000 nM.

With `CNc1cc(F)c(F)c2c1[nH]c1ncc(-c3cnc4c(c3)c(=O)c(C(=O)O)cn4C)c(N3CCC4(CN(C)CCO4)C3)c12` (centres unmarked) [Example 1.202] as the molecule, how does the IC50 (A. baumannii (ATCC17978)) read?
Its IC50 is 0.16 µM.

What about the IC50 (S. aureus (ATCC29213)) of the same molecule?
Its IC50 is less than 0.098 µM.

And the IC50 [2]?
Its IC50 is less than 0.098 µM.

What about the AUC total [3] of the same molecule?
The AUC total was 167.5 ng·h/mL.

And the clearance [3]?
Its clearance is 98.1 mL/min/kg.

What does the source list for `CNc1cc(F)c(F)c2c1[nH]c1ncc(-c3cnc4c(c3)c(=O)c(C(=O)O)cn4NC)c(N3CCC[C@H]3CN(C)C)c12` [Example 1.217]?
solubility thermodynamic [1]: 190 µg/mL (≈ 330 µM); IC50 (A. baumannii (ATCC17978)): 0.187 µM; IC50 (S. aureus (ATCC29213)): 0.12 µM; IC50 [2]: < 0.098 µM; CC50 at 3 days [4]: 27800 nM

Which solubility thermodynamic [1] does the source give for `CNc1cc(F)c(F)c2c1[nH]c1ncc(-c3cnc4c(c3)c(=O)c(C(=O)O)cn4C)c(N3CC4CN(C)C[C@@H]4C3)c12` (some centres unmarked) [Example 1.227] here?
Its solubility thermodynamic is 12 µg/mL (≈ 21.4 µM).

And the IC50 (A. baumannii (ATCC17978))?
The IC50 was 0.294 µM.

What about the IC50 (S. aureus (ATCC29213)) of the same molecule?
Its IC50 is 0.132 µM.

What about the IC50 [2] of the same molecule?
The IC50 was less than 0.098 µM.

And the CC50 at 3 days [4]?
Its CC50 at 3 days is 28000 nM.

With `CNc1cc(F)c(F)c2c1[nH]c1ncc(-c3cnc4c(c3)c(=O)c(C(=O)O)cn4C)c(N3CCC4(CCN(C)C4)C3)c12` (centres unmarked) [Example 1.229] as the molecule, how does the solubility thermodynamic [1] read?
Its solubility thermodynamic is 12 µg/mL (≈ 20.9 µM).

What about the IC50 (A. baumannii (ATCC17978)) of the same molecule?
Its IC50 is 0.297 µM.

And the IC50 (S. aureus (ATCC29213))?
The IC50 was less than 0.098 µM.

And the IC50 [2]?
Its IC50 is less than 0.098 µM.

And the CC50 at 3 days [4]?
Its CC50 at 3 days is 53100 nM.

With `CNc1cc(F)c(F)c2c1[nH]c1ncc(-c3cnc4c(c3)c(=O)c(C(=O)O)cn4C)c(N3CCC4(CCCN4C)CC3)c12` [Example 1.230] as the molecule, how does the solubility thermodynamic [1] read?
Its solubility thermodynamic is 19 µg/mL (≈ 32.3 µM).

What about the IC50 (A. baumannii (ATCC17978)) of the same molecule?
The IC50 was 0.376 µM.

And the IC50 (S. aureus (ATCC29213))?
Its IC50 is 0.099 µM.

What about the IC50 [2] of the same molecule?
Its IC50 is less than 0.098 µM.

And the CC50 at 3 days [4]?
The CC50 at 3 days was greater than 100000 nM.

Which IC50 (A. baumannii (ATCC17978)) does the source give for `CNc1cc(F)c(F)c2c1[nH]c1ncc(-c3cnc4c(c3)c(=O)c(C(=O)O)cn4C)c(N3CC4[C@@H](C3)OCCN4C)c12` (some centres unmarked) [Example 1.241] here?
Its IC50 is 0.095 µM.

What about the IC50 (S. aureus (ATCC29213)) of the same molecule?
The IC50 was less than 0.098 µM.

And the IC50 [2]?
Its IC50 is less than 0.098 µM.

What about the AUC total [3] of the same molecule?
The AUC total was 196.3 ng·h/mL.

And the clearance [3]?
Its clearance is 84.3 mL/min/kg.

With `CNc1cc(F)c(F)c2c1[nH]c1ncc(-c3cnc4c(c3)c(=O)c(C(=O)O)cn4C)c(N3CC[C@H](N(C)C)C3)c12` [Example 1.254] as the molecule, how does the solubility thermodynamic [1] read?
Its solubility thermodynamic is 23 µg/mL (≈ 42 µM).

And the IC50 (A. baumannii (ATCC17978))?
The IC50 was 0.164 µM.

What about the IC50 (S. aureus (ATCC29213)) of the same molecule?
Its IC50 is less than 0.098 µM.

What about the IC50 [2] of the same molecule?
The IC50 was less than 0.098 µM.

What about the CC50 at 3 days [4] of the same molecule?
Its CC50 at 3 days is 36100 nM.

Which solubility thermodynamic [1] does the source give for `CNc1cc(F)c(Cl)c2c1[nH]c1ncc(-c3cnc4c(c3)c(=O)c(C(=O)O)cn4NC)c(N3CC[C@H]4CN(C)CC43)c12` (some centres unmarked) [Example 1.268] here?
Its solubility thermodynamic is 24 µg/mL (≈ 40.6 µM).

What about the IC50 (A. baumannii (ATCC17978)) of the same molecule?
The IC50 was 0.065 µM.

What about the IC50 (S. aureus (ATCC29213)) of the same molecule?
Its IC50 is less than 0.098 µM.

And the IC50 [2]?
Its IC50 is less than 0.098 µM.

What about the CC50 at 3 days [4] of the same molecule?
The CC50 at 3 days was 33400 nM.

Which solubility thermodynamic [1] does the source give for `CNc1cc(F)cc2c1[nH]c1ncc(-c3cnc4c(c3)c(=O)c(C(=O)O)cn4C)c(N3CCO[C@@H](CN(C)C)C3)c12` [Example 3.02A] here?
The solubility thermodynamic was 480 µg/mL (≈ 858 µM).

And the IC50 (A. baumannii (ATCC17978))?
Its IC50 is 0.268 µM.

What about the IC50 (S. aureus (ATCC29213)) of the same molecule?
The IC50 was less than 0.098 µM.

What about the IC50 [2] of the same molecule?
Its IC50 is less than 0.098 µM.

And the CC50 at 3 days [4]?
Its CC50 at 3 days is greater than 100000 nM.

What does the source list for `CNc1cc(F)cc2c1[nH]c1ncc(-c3cnc4c(c3)c(=O)c(C(=O)O)cn4C)c(N3CCO[C@H](CN(C)C)C3)c12` [Example 3.02B]?
solubility thermodynamic [1]: 455 µg/mL (≈ 813 µM); IC50 (A. baumannii (ATCC17978)): 0.444 µM; IC50 (S. aureus (ATCC29213)): < 0.098 µM; IC50 [2]: < 0.098 µM; CC50 at 3 days [4]: > 100000 nM

For `CNc1cc(F)c(F)c2c1[nH]c1ncc(-c3cnc4c(c3)c(=O)c(C(=O)O)cn4C)c(N3CCC[C@@H](N(C)C)C3)c12` [Example 3.06A], which solubility thermodynamic [1] is on record?
The solubility thermodynamic was 66 µg/mL (≈ 118 µM).

And the IC50 (A. baumannii (ATCC17978))?
The IC50 was 0.102 µM.

What about the IC50 (S. aureus (ATCC29213)) of the same molecule?
The IC50 was less than 0.098 µM.

What about the IC50 [2] of the same molecule?
Its IC50 is less than 0.098 µM.

What about the CC50 at 3 days [4] of the same molecule?
The CC50 at 3 days was 52500 nM.

What does the source list for `CNc1cc(F)c(F)c2c1[nH]c1ncc(-c3cnc4c(c3)c(=O)c(C(=O)O)cn4C)c(N3CCC[C@H](N(C)C)C3)c12` [Example 3.06B]?
solubility thermodynamic [1]: 85 µg/mL (≈ 151 µM); IC50 (A. baumannii (ATCC17978)): 0.176 µM; IC50 (S. aureus (ATCC29213)): < 0.098 µM; IC50 [2]: < 0.098 µM; CC50 at 3 days [4]: 40200 nM
